Results published in patent publication US8802597B2, “Herbicidal pyrimidines” (E I du Pont de Nemours and Company, priority 2003, dated 2014).

Assays:
Format in all cases: in vivo
[1] = tested on: crabgrass (Digitaria sanguinalis); assay: Test A pre/postemergence
Summary of the method: (§1)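 Compared with untreated controls, treated plants were visually rated for injury on a 0 (none) to 100 (complete control) scale about ten days after spraying. Pre- and postemergence applications used one solvent/surfactant formulation; postemergence plants measured 2–10 cm.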

[2] = tested on: giant foxtail (Setaria faberi); assay: Test A pre/postemergence
Summary of the method: as §1

[3] = tested on: velvetleaf (Abutilon theophrasti); assay: Test A pre/postemergence
Summary of the method: as §1

[4] = tested on: redroot pigweed (Amaranthus retroflexus); assay: Test A pre/postemergence
Summary of the method: as §1

[5] = tested on: morningglory (Ipomoea spp.); assay: Test A pre/postemergence
Summary of the method: as §1

[6] = tested on: barnyardgrass (Echinochloa crus-galli); assay: Test A pre/postemergence
Summary of the method: as §1

[7] = tested on: water seeded rice seedlings (Oryza sativa cv. ‘Japonica-M202’); assay: Test E flooded paddy water application; conditions: Flood, 21 days, scale 0 to 100 (0 no effect, 100 complete control); for Plant response rating, Rice, Water Seeded: 16 g ai/ha
From the text: (§2) Three plastic pots (ca. 16-cm diameter) per rate were partially filled with sterilized Tama silt loam soil comprising a 35:50:15 ratio of sand, silt and clay and 2.6% organic matter. Separate plantings for each of the three pots were as follows. Seeds from the U.S. of ducksalad (Heteranthera limosa), smallflower umbrella sedge (Cyperus difformis) and purple redstem (Ammannia coccinea), were planted into one 16-cm pot for each rate. Seeds from the U.S. of rice flatsedge (Cyperus iria), bearded (brdd.) sprangletop (Leptochloa fusca ssp. fascicularis), one stand of 9 or 10 water seeded rice seedlings (Oryza sativa cv. ‘Japonica-M202’), and one stand of 6 transplanted rice seedlings (Oryza sativa cv. ‘Japonica-M202’) were planted into one 16-cm pot for each rate. Seeds from the U.S. of barnyardgrass (Echinochloa crus-galli), late watergrass (Echinochloa oryzicola), early watergrass (Echinochloa oryzoides) and junglerice (Echinochloa colona) were planted into one 16-cm pot for each rate. Plantings were sequential so that crop and weed species were at the 2.0 to 2.5-leaf stage at time of treatment.
(§3) Potted plants were grown in a greenhouse with day/night temperature settings of 29.5/26.7° C., and supplemental balanced lighting was provided to maintain a 16-hour photoperiod. Test pots were maintained in the greenhouse until test completion.
(§4) At time of treatment, test pots were flooded to 3 cm above the soil surface, treated by application of test compounds directly to the paddy water, and then maintained at that water depth for the duration of the test. Effects of treatments on rice and weeds were visually evaluated by comparison to untreated controls after 21 days. Plant response ratings, summarized in Table E, are based on a scale of 0 to 100 where 0 is no effect and 100 is complete control. A dash (-) response means no test result.

[8] = tested on: purple redstem (Ammannia coccinea); assay: Test E flooded paddy water application; conditions: Flood, 21 days, scale 0 to 100 (0 no effect, 100 complete control); for Plant response rating, Redstem: 16 g ai/ha
From the text: as §2, §3, §4

[9] = tested on: bearded (brdd.) sprangletop (Leptochloa fusca ssp. fascicularis); assay: Test E flooded paddy water application; conditions: Flood, 21 days, scale 0 to 100 (0 no effect, 100 complete control); for Plant response rating, Sprangletop, Brdd.: 16 g ai/ha
From the text: as §2, §3, §4

[10] = tested on: junglerice (Echinochloa colona); assay: Test E flooded paddy water application; conditions: Flood, 21 days, scale 0 to 100 (0 no effect, 100 complete control); for Plant response rating, Junglerice: 16 g ai/ha
From the text: as §2, §3, §4

[11] = tested on: transplanted rice seedlings (Oryza sativa cv. ‘Japonica-M202’); assay: Test E flooded paddy water application; conditions: Flood, 21 days, scale 0 to 100 (0 no effect, 100 complete control); for Plant response rating, Rice, Transplanted: 16 g ai/ha
From the text: as §2, §3, §4

[12] = tested on: ducksalad (Heteranthera limosa); assay: Test E flooded paddy water application; conditions: Flood, 21 days, scale 0 to 100 (0 no effect, 100 complete control); for Plant response rating, Ducksalad: 16 g ai/ha
From the text: as §2, §3, §4

[13] = tested on: early watergrass (Echinochloa oryzoides); assay: Test E flooded paddy water application; conditions: Flood, 21 days, scale 0 to 100 (0 no effect, 100 complete control); for Plant response rating, Watergrass, Early: 16 g ai/ha
From the text: as §2, §3, §4

[14] = tested on: barnyardgrass (Echinochloa crus-galli); assay: Test E flooded paddy water application; conditions: Flood, 21 days, scale 0 to 100 (0 no effect, 100 complete control)
From the text: as §2, §3, §4

[15] = tested on: late watergrass (Echinochloa oryzicola); assay: Test E flooded paddy water application; conditions: Flood, 21 days, scale 0 to 100 (0 no effect, 100 complete control); for Plant response rating, Watergrass, Late: 16 g ai/ha
From the text: as §2, §3, §4

[16] = tested on: rice flatsedge (Cyperus iria); assay: Test E flooded paddy water application; conditions: Flood, 21 days, scale 0 to 100 (0 no effect, 100 complete control); for Plant response rating, Flatsedge, Rice: 16 g ai/ha
From the text: as §2, §3, §4

[17] = tested on: smallflower umbrella sedge (Cyperus difformis); assay: Test E flooded paddy water application; conditions: Flood, 21 days, scale 0 to 100 (0 no effect, 100 complete control)
From the text: as §2, §3, §4

[18] = Postemergence, 125 g ai/ha, 0 to 100 scale (0 no effect, 100 complete control)
[19] = Postemergence, 500 g ai/ha, 0 to 100 scale (0 no effect, 100 complete control)
[20] = Preemergence, 125 g ai/ha, 0 to 100 scale where 0 is no effect and 100 is complete control, approximately ten days
[21] = Preemergence, 500 g ai/ha, 0 to 100 scale where 0 is no effect and 100 is complete control, approximately ten days

CCOC(=O)c1nc(-c2ccc(CC)cc2)nc(N)c1Cl [Compound 99]
45: Redstem plant response rating ([8]; 250 g ai/ha)
20: Rice, Water Seeded plant response rating ([7]; 125 g ai/ha) | Rice, Water Seeded plant response rating ([7]; 250 g ai/ha) | Rice, Transplanted plant response rating ([11]; 250 g ai/ha)
0: Plant response rating, Crabgrass [1, 18] | Plant response rating, Crabgrass [1, 19] | Plant response rating, Crabgrass [1, 20] | Plant response rating, Crabgrass [1, 21] | Plant response rating, Foxtail, Giant [2, 18] | Plant response rating, Foxtail, Giant [2, 19] | Plant response rating, Foxtail, Giant [2, 20] | Plant response rating, Foxtail, Giant [2, 21] | Plant response rating, Velvetleaf [3, 18] | Plant response rating, Velvetleaf [3, 20] | Plant response rating, Velvetleaf [3, 21] | Plant response rating, Pigweed [4, 20] | Plant response rating, Pigweed [4, 21] | Plant response rating, Morningglory [5, 18] | Plant response rating, Morningglory [5, 19] | Plant response rating, Morningglory [5, 20] | Plant response rating, Morningglory [5, 21] | Plant response rating, Barnyardgrass [6, 18] | Plant response rating, Barnyardgrass [6, 19] | Plant response rating, Barnyardgrass [6, 20] | Plant response rating, Barnyardgrass [6, 21] | Rice, Water Seeded plant response rating ([7]; 32 g ai/ha) | Rice, Water Seeded plant response rating ([7]; 64 g ai/ha) | Plant response rating, Rice, Water Seeded [7] | Redstem plant response rating ([8]; 32 g ai/ha) | Redstem plant response rating ([8]; 125 g ai/ha) | Plant response rating, Redstem [8] | Sprangletop, Brdd. plant response rating ([9]; 32 g ai/ha) | Sprangletop, Brdd. plant response rating ([9]; 64 g ai/ha) | Sprangletop, Brdd. plant response rating ([9]; 125 g ai/ha) | Sprangletop, Brdd. plant response rating ([9]; 250 g ai/ha) | Plant response rating, Sprangletop, Brdd. [9] | Junglerice plant response rating ([10]; 32 g ai/ha) | Junglerice plant response rating ([10]; 64 g ai/ha) | Junglerice plant response rating ([10]; 125 g ai/ha) | Junglerice plant response rating ([10]; 250 g ai/ha) | Plant response rating, Junglerice [10] | Rice, Transplanted plant response rating ([11]; 32 g ai/ha) | Rice, Transplanted plant response rating ([11]; 64 g ai/ha) | Rice, Transplanted plant response rating ([11]; 125 g ai/ha) | Plant response rating, Rice, Transplanted [11] | Watergrass, Early plant response rating ([13]; 32 g ai/ha) | Watergrass, Early plant response rating ([13]; 64 g ai/ha) | Watergrass, Early plant response rating ([13]; 125 g ai/ha) | Watergrass, Early plant response rating ([13]; 250 g ai/ha) | Plant response rating, Watergrass, Early [13] | Barnyardgrass plant response rating ([14]; 32 g ai/ha) | Barnyardgrass plant response rating ([14]; 64 g ai/ha) | Barnyardgrass plant response rating ([14]; 125 g ai/ha) | Barnyardgrass plant response rating ([14]; 250 g ai/ha) | Plant response rating, Barnyardgrass ([14]; 16 g ai/ha) | Watergrass, Late plant response rating ([15]; 32 g ai/ha) | Watergrass, Late plant response rating ([15]; 64 g ai/ha) | Watergrass, Late plant response rating ([15]; 125 g ai/ha) | Watergrass, Late plant response rating ([15]; 250 g ai/ha) | Plant response rating, Watergrass, Late [15]
5: Plant response rating, Pigweed [4, 18]
35: Plant response rating, Velvetleaf [3, 19]
100: Ducksalad plant response rating ([12]; 32 g ai/ha) | Ducksalad plant response rating ([12]; 64 g ai/ha) | Ducksalad plant response rating ([12]; 125 g ai/ha) | Ducksalad plant response rating ([12]; 250 g ai/ha) | Flatsedge, Rice plant response rating ([16]; 64 g ai/ha) | Flatsedge, Rice plant response rating ([16]; 125 g ai/ha) | Flatsedge, Rice plant response rating ([16]; 250 g ai/ha) | Plant response rating, Flatsedge, Rice [16]
10: Plant response rating, Pigweed [4, 19]
95: Plant response rating, Ducksalad [12]

CCOC(=O)c1nc(-c2ccc(F)cc2)nc(N)c1Br [Compound 63]
20: Plant response rating, Morningglory [5, 18] | Rice, Water Seeded plant response rating ([7]; 125 g ai/ha)
85: Flatsedge, Rice plant response rating ([16]; 125 g ai/ha) | Flatsedge, Rice plant response rating ([16]; 250 g ai/ha)
75: Plant response rating, Crabgrass [1, 21] | Sedge, Umbrella plant response rating ([17]; 32 g ai/ha) | Sedge, Umbrella plant response rating ([17]; 64 g ai/ha) | Sedge, Umbrella plant response rating ([17]; 125 g ai/ha) | Redstem plant response rating ([8]; 125 g ai/ha) | Redstem plant response rating ([8]; 250 g ai/ha) | Flatsedge, Rice plant response rating ([16]; 32 g ai/ha) | Flatsedge, Rice plant response rating ([16]; 64 g ai/ha)
70: Plant response rating, Velvetleaf [3, 19] | Plant response rating, Sedge, Umbrella ([17]; 16 g ai/ha)
55: Plant response rating, Velvetleaf [3, 18]
65: Plant response rating, Pigweed [4, 19] | Redstem plant response rating ([8]; 32 g ai/ha) | Redstem plant response rating ([8]; 64 g ai/ha) | Plant response rating, Redstem [8] | Sprangletop, Brdd. plant response rating ([9]; 250 g ai/ha) | Ducksalad plant response rating ([12]; 64 g ai/ha)
0: Plant response rating, Crabgrass [1, 18] | Plant response rating, Crabgrass [1, 19] | Plant response rating, Crabgrass [1, 20] | Plant response rating, Foxtail, Giant [2, 18] | Plant response rating, Foxtail, Giant [2, 19] | Plant response rating, Foxtail, Giant [2, 20] | Plant response rating, Velvetleaf [3, 20] | Plant response rating, Pigweed [4, 20] | Plant response rating, Morningglory [5, 20] | Plant response rating, Morningglory [5, 21] | Plant response rating, Barnyardgrass [6, 18] | Plant response rating, Barnyardgrass [6, 19] | Plant response rating, Barnyardgrass [6, 20] | Rice, Water Seeded plant response rating ([7]; 32 g ai/ha) | Rice, Water Seeded plant response rating ([7]; 64 g ai/ha) | Plant response rating, Rice, Water Seeded [7] | Sprangletop, Brdd. plant response rating ([9]; 32 g ai/ha) | Plant response rating, Sprangletop, Brdd. [9] | Junglerice plant response rating ([10]; 32 g ai/ha) | Junglerice plant response rating ([10]; 64 g ai/ha) | Junglerice plant response rating ([10]; 125 g ai/ha) | Plant response rating, Junglerice [10] | Rice, Transplanted plant response rating ([11]; 32 g ai/ha) | Rice, Transplanted plant response rating ([11]; 64 g ai/ha) | Rice, Transplanted plant response rating ([11]; 125 g ai/ha) | Rice, Transplanted plant response rating ([11]; 250 g ai/ha) | Plant response rating, Rice, Transplanted [11] | Watergrass, Early plant response rating ([13]; 32 g ai/ha) | Watergrass, Early plant response rating ([13]; 64 g ai/ha) | Watergrass, Early plant response rating ([13]; 125 g ai/ha) | Watergrass, Early plant response rating ([13]; 250 g ai/ha) | Plant response rating, Watergrass, Early [13] | Watergrass, Late plant response rating ([15]; 32 g ai/ha) | Watergrass, Late plant response rating ([15]; 64 g ai/ha) | Watergrass, Late plant response rating ([15]; 125 g ai/ha) | Watergrass, Late plant response rating ([15]; 250 g ai/ha) | Plant response rating, Watergrass, Late [15]
60: Plant response rating, Flatsedge, Rice [16]
15: Plant response rating, Velvetleaf [3, 21]
25: Plant response rating, Morningglory [5, 19]
100: Ducksalad plant response rating ([12]; 125 g ai/ha) | Ducksalad plant response rating ([12]; 250 g ai/ha)
30: Rice, Water Seeded plant response rating ([7]; 250 g ai/ha) | Junglerice plant response rating ([10]; 250 g ai/ha) | Ducksalad plant response rating ([12]; 32 g ai/ha) | Plant response rating, Ducksalad [12]
80: Plant response rating, Pigweed [4, 21] | Sedge, Umbrella plant response rating ([17]; 250 g ai/ha)
40: Plant response rating, Pigweed [4, 18] | Plant response rating, Barnyardgrass [6, 21] | Sprangletop, Brdd. plant response rating ([9]; 64 g ai/ha) | Sprangletop, Brdd. plant response rating ([9]; 125 g ai/ha)
35: Plant response rating, Foxtail, Giant [2, 21]
